Experimental data taken from ChEMBL document CHEMBL1148041, “New fatty acid esters of drimane sesquiterpenes from Lactarius uvidus” (J Nat Prod, 1994).

Experiments:
[1] = system: Artemia salina; assay: Toxicity in Artemia salina; type: organism-based; conditions: in vivo
[2] = system: HL-60; assay: Cytotoxicity against human HL60 cells assessed as inhibition of [3H]thymidine incorporation at 50 gamma/ml; type: functional
[3] = system: HL-60; assay: Cytotoxicity against human HL60 cells assessed as inhibition of [3H]thymidine incorporation at 0.05 gamma/ml; type: functional

| SMILES | LC50 [1] [ppm] | inhibition (INH) [2] [%] | inhibition (INH) [3] [%] |
| --- | --- | --- | --- |
| CC1(C)CCC[C@]2(C)[C@@H](CO)[C@@]3(C)O[C@H]3C(=O)[C@@H]12 [UVIDIN A] | 48.8 | 97 | 21 |
| CC1(C)[C@@H](O)CC[C@]2(C)[C@@H](CO)[C@@]3(C)O[C@H]3C(=O)[C@@H]12 [UVIDIN B] |  | 61 | 0 |
